Patent publication US4001248A, “N-cycloalkylmethyl decahydroisoquinolines” (Eli Lilly and Company, priority 1974, dated 1977)
Where “and” joins values, the source holds several entries; their conditions need not be identical. Identical values can stand only once.

Legend:
[1] = tested on: writhing in mice induced by the intraperitoneal injection of acetic acid; test: mouse-writhing test (inhibition of writhing induced by intraperitoneal acetic acid); assay type: in vivo; settings: reading at 0.25 hours
Description: In the Table, column 1 gives the name of the compund; column 2, the dosage in mg./kg. of mouse weight; column 3, the route of administration of the drug ("S.C." is subcutaneous and "or" is oral); and column 4, the percent inhibition found at the particular dose level. […] Median inhibiting doses (I.D.50) are also included in the Table.

[2] = tested on: rat tail jerk; test: rat tail jerk assay (increase in reaction time over control); assay type: in vivo
Description: The compounds of this invention are also active in the rat tail jerk assay, another standard pharmacologic test for analgesic activity of the opiate-type. Such activity is manifested as an increase in the reaction time of the animal in removing (jerking) its tail from a nearby heat stimulus (a resistance wire) after drug administration compared to control time (no drug administered). Table 2 which follows gives the increased reaction times over control times produced by the compounds of this invention when administered subcutaneously. In Tables 2 and 3, column 1 gives the name of the compound; column 2, the dose; column 3, time of observation after administration of the drug; column 4, the increase in reaction time above control in seconds; and column 5, the level of significance of the results ("p" value). […] All drugs were administered as aqueous solutions. More than one value for a given dose level indicates multiple determinations. The results are not averaged.

[3] = tested on: morphine; test: modified rat tail jerk assay, antagonism of morphine; assay type: in vivo, rats
Protocol: The ability of the compounds of this invention to antagonize the action of morphine, an opiate, is shown by the following modification of the aforementioned rat tail jerk assay: The standard assay procedure is used with the exception that a 7 amps. current is used instead of a 6 amps. current in the hot wire to decrease the measurable agonist effects of the antagonist. The drugs under test are then administered to groups of rats at different dose levels at different times prior to test, with a 5 mg./kg. dose of morphine invariably being administered 10 minutes prior to test. Positive evidence of antagonism is a decreased reaction time over that to be expected from the morphine. […] Among the compounds of this invention, those in which R in Structure I is cyclopropylmethyl are the preferred antagonists, showing activity in the above test procedure. […] In a series of determinations, it was ascertained that the minimum subcutaneous dose necessary to reduce the analgesic effects of a 5 mg./kg. subcutaneous dose of morphine was in the range 2.5-5.0 mg./kg. and the minimum oral dose, 5-10 mg./kg.

[4] = toxicity (L.D.50); assay type: in vivo, mice; settings: compared with dl mixture
[5] = tested on: morphine induced Straub tail; test: blocking of morphine induced Straub tail in mice; assay type: in vivo; settings: for blocking on the morphine-induced Straub tail: 15 and 30 minutes before assay
Protocol: In this assay, a 40 mg./kg. dose of morphine was administered to mice 15 minutes prior to assay, and the test drug at various intervals before assay. Trans-dl-1 -cyclopropylmethyl-3a-(m-hydroxyphenyl)-1,2,3,3a,4,5,6,7,7a,8-decahydroisoquinoline maleate gave a 100 percent block of the Straubed tail effected by a subcutaneous injection of 40 mg./kg. of morphine when the test drug was given at a dose of 50 mg./kg. subcutaneously 15 minutes prior to assay, and 80 percent when given 30 minutes prior to assay. The l(-) isomer gave 100 percent blocking on the morphine-induced Straub tail at 50 and 20 mg./kg. doses 15 and 30 minutes before assay.

[6] = subcutaneous, 10 mg./kg., 15 min
[7] = subcutaneous, 50 mg./kg., 15 min

Compound: O=C(O)/C=C\C(=O)O.Oc1cccc([C@@]23CCCC[C@H]2CN(CC2CC2)CC3)c1 (stereo in doubt) [Trans-d(+)-1-cyclopropylmethyl-3a-(m-hydroxyphenyl)-1,2,3,3a] [Trans-d(+)-1-cyclopropylmethyl-3a-(m-hydroxyphenyl)-1,2,3,3a,4,5,6,7,7a,8-decahydroisoquinoline maleate]
- % Inhibition ([1]; 5 mg./kg. S.C.): inact
- % Inhibition ([1]; 50 mg./kg. S.C.): 44%
- % Inhibition ([1]; 100 mg./kg. S.C.): 51%
- Increase in Reaction Time Over Control ([2]; oral, 100 mg./kg., 30 min): 0 s
- Increase in Reaction Time Over Control ([2]; oral, 100 mg./kg., 60 min): 0 s
- Increase in Reaction Time Over Control ([2]; oral, 100 mg./kg., 120 min): .40 s
- Increase in Reaction Time Over Control ([2]; oral, 150 mg./kg., 15 min): 0 s
- Increase in Reaction Time Over Control ([2]; oral, 150 mg./kg., 30 min): 0 s
- Increase in Reaction Time Over Control ([2]; oral, 150 mg./kg., 60 min): .35 s
- Increase in Reaction Time Over Control ([2]; oral, 150 mg./kg., 120 min): .30 s
- Increase in Reaction Time Over Control ([2]; oral, 150 mg./kg., 180 min): .30 s
- lethality in the rat tail jerk assay ([2]; oral, 200 mg./kg.): lethal
- Increase in Reaction Time Over Control [2, 6]: 0 s
- Increase in Reaction Time Over Control [2, 7]: .25 s
- Increase in Reaction Time Over Control ([2]; subcutaneous, 50 mg./kg., 30 min): 1.30 s
- Increase in Reaction Time Over Control ([2]; subcutaneous, 50 mg./kg., 60 min): 2.25 s
- Increase in Reaction Time Over Control ([2]; subcutaneous, 50 mg./kg., 120 min): .10 s
- Increase in Reaction Time Over Control ([2]; subcutaneous, 100 mg./kg., 15 min): .50 s
- Increase in Reaction Time Over Control ([2]; subcutaneous, 100 mg./kg., 30 min): 1.55 s
- Increase in Reaction Time Over Control ([2]; subcutaneous, 100 mg./kg., 60 min): 3.50 s
- Increase in Reaction Time Over Control ([2]; subcutaneous, 100 mg./kg., 120 min): 1.15 s
- morphine antagonistic effects ([3]; 100 mg./kg. subcutaneous, 60 minutes before test): shows morphine antagonistic effects
- toxicity relative to the dl mixture ([4]; listed as d(+) isomer): about the same toxicity as the dl mixture

Compound: O=C(O)/C=C\C(=O)O.Oc1cccc([C@@]23CCCC[C@H]2CN(CC2CC2)CC3)c1 (stereo in doubt) [Trans-l(-)-1-cyclopropylmethyl-3a-(m-hydroxyphenyl)-1,2,3,3a] [Trans-l(-)-1-cyclopropylmethyl-3a-(m-hydroxyphenyl)-1,2,3,3a,4,5,6,7,7a,8-decahydroisoquinoline maleate]
- % Inhibition ([1]; 2 mg./kg. S.C.): 47%
- % Inhibition ([1]; 5 mg./kg. S.C.): 72%
- Increase in Reaction Time Over Control ([2]; oral, 5 mg./kg., 60 min): .20 s
- Increase in Reaction Time Over Control ([2]; oral, 10 mg./kg., 60 min): .65 s
- Increase in Reaction Time Over Control ([2]; oral, 25 mg./kg., 60 min): 1.30 s
- Increase in Reaction Time Over Control ([2]; oral, 50 mg./kg., 30 min): 2.25 s
- Increase in Reaction Time Over Control ([2]; oral, 50 mg./kg., 60 min): 2.80 s
- Increase in Reaction Time Over Control ([2]; oral, 50 mg./kg., 120 min): .80 s
- Increase in Reaction Time Over Control ([2]; oral, 100 mg./kg., 60 min): 3.15 s
- Increase in Reaction Time Over Control ([2]; oral, 200 mg./kg., 30 min, 20 sec. cut off): 4.90 s
- Increase in Reaction Time Over Control ([2]; oral, 200 mg./kg., 60 min): 5.40 s
- Increase in Reaction Time Over Control ([2]; oral, 200 mg./kg., 120 min): 2.65 s
- Increase in Reaction Time Over Control ([2]; subcutaneous, 0.1 mg./kg., 30 min): 85 s
- Increase in Reaction Time Over Control ([2]; subcutaneous, 0.5 mg./kg., 30 min): 1.30 s
- Increase in Reaction Time Over Control ([2]; subcutaneous, 1 mg./kg., 30 min): 0 s
- Increase in Reaction Time Over Control ([2]; subcutaneous, 5 mg./kg., 10 min): 2.75 s
- Increase in Reaction Time Over Control ([2]; subcutaneous, 5 mg./kg., 15 min): 3.45 s
- Increase in Reaction Time Over Control ([2]; subcutaneous, 5 mg./kg., 30 min): 3.55 s and 2.95 s
- Increase in Reaction Time Over Control ([2]; subcutaneous, 5 mg./kg., 30 min, 20 sec. cut off): 6.65 s and 6.95 s
- Increase in Reaction Time Over Control ([2]; subcutaneous, 5 mg./kg., 60 min): 1.0 s
- Increase in Reaction Time Over Control ([2]; subcutaneous, 5 mg./kg., 120 min): 0 s
- Increase in Reaction Time Over Control ([2]; subcutaneous, 5 mg./kg., 180 min): 0 s
- Increase in Reaction Time Over Control ([2]; subcutaneous, 10 mg./kg., 10 min, 20 sec. cut off): 7.30 s
- Increase in Reaction Time Over Control [2, 6]: 5.80 s
- Increase in Reaction Time Over Control ([2]; subcutaneous, 10 mg./kg., 15 min, 20 sec. cut off): 6.70 s
- Increase in Reaction Time Over Control ([2]; subcutaneous, 10 mg./kg., 60 min): 3.0 s
- Increase in Reaction Time Over Control ([2]; subcutaneous, 10 mg./kg., 90 min): 2.55 s
- Increase in Reaction Time Over Control ([2]; subcutaneous, 10 mg./kg., 120 min): 4.0 s
- Increase in Reaction Time Over Control ([2]; subcutaneous, 10 mg./kg., 180 min): 1.50 s
- Increase in Reaction Time Over Control [2, 7]: 7.35 s
- dose showing antagonism of morphine ([3]; subcutaneous): 1 to 2 mg/kg
- blocking on the morphine-induced Straub tail ([5]; 20 mg./kg.): 100%
- blocking on the morphine-induced Straub tail ([5]; 50 mg./kg.): 100%
- blocking the morphine induced Straub tail ([5]; morphine 40 mg./kg.): manifests antagonistic effects in blocking the morphine induced Straub tail in mice
- toxicity relative to the dl mixture ([4]; listed as l(-) isomer): less toxic than the dl mixture
